Laboratory results as given in the supplement of paper PMC10011410.
± gives the standard deviation of the averaged measurements.

Tests used:
[1] = tested on: U-2 OS; test: relative cell count vs DMSO (cell painting) (fraction of DMSO control); higher = more cells remaining (less cytotoxic); details: 24 h
Method in brief: (§1)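 Cell painting used U-2 OS cells at about 1,500 per well in 384-well plates, treated by pin tool for 24 h at 37 °C, usually at six 2-fold concentrations from 20 μM to 625 nM. Cells were stained with MitoTracker, concanavalin A, phalloidin, wheat germ agglutinin, Hoechst and SYTO 14 and imaged on an Opera Phenix. Features were extracted with CellProfiler and normalized to DMSO cells on the same plate. The activity score is the Mahalanobis distance from DMSO wells; cell count is relative to DMSO wells. Values are means of four replicate plates.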

[2] = tested on: U-2 OS; test: cell painting activity score (Mahalanobis distance from DMSO wells); higher = stronger morphological phenotype; details: 24 h
Method in brief: as §1

[3] = tested on: U-2 OS; test: AUC of culture confluence over time (live-cell imaging) (AUC (confluence % x time)); higher = more confluent culture (less growth inhibition)
Method in brief: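 Confluence of U-2 OS cells in F-12K medium with 10% FBS was tracked by live-cell imaging. Cells were seeded at 750 per well in 384-well plates and treated 24 h later by pin tool, with most compounds at 20, 10 and 5 μM and 0.2% DMSO. Cells were kept at 37 °C and imaged every 4 h for up to 60 h on an Incucyte S3 with a 10x objective. The value is the area under the confluence-versus-time curve.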

[4] = tested on: U-2 OS; test: total intracellular glutathione (GSH + GSSG) relative to DMSO (% of control); higher = more glutathione; details: 24 h
Description: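 Total intracellular glutathione (GSH + GSSG) in U-2 OS cells by GSH/GSSG-Glo after 24 h compound treatment at 5, 10 and 20 uM (some at 40 and 80 uM), as percent of DMSO control. Five technical replicate plates, averaged.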

[5] = tested on: U-2 OS; test: cell viability (CellTiter-Glo) relative to DMSO (% of control); higher = more viable; details: 24 h
Description: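 Cell viability of U-2 OS cells by CellTiter-Glo after 24 h compound treatment at 5, 10 and 20 uM (some at 40 and 80 uM), measured in parallel with the glutathione assay, as percent of DMSO control. Five technical replicate plates, averaged.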

[6] = tested on: U-2 OS; test: intracellular GSH:GSSG ratio (calculated); higher = more reduced glutathione pool; details: 24 h
Description: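 Intracellular glutathione in U-2 OS cells after 24 h compound treatment at 5, 10 and 20 uM (some at 40 and 80 uM). Total glutathione and GSSG were measured with the GSH/GSSG-Glo kit, and the GSH:GSSG ratio was calculated. Mean of five technical replicate plates.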

Structure (SMILES) | relative cell count ([1]; 0.625 µM) | relative cell count ([1]; 1.25 µM) | relative cell count ([1]; 2.5 µM) | relative cell count ([1]; 5 µM) | relative cell count ([1]; 10 µM) | relative cell count ([1]; 20 µM) | relative cell count ([1]; 40 µM) | relative cell count ([1]; 80 µM) | cell painting activity score ([2]; 0.625 µM) | cell painting activity score ([2]; 1.25 µM) | cell painting activity score ([2]; 2.5 µM) | cell painting activity score ([2]; 5 µM) | cell painting activity score ([2]; 10 µM) | cell painting activity score ([2]; 20 µM) | cell painting activity score ([2]; 40 µM) | cell painting activity score ([2]; 80 µM) | AUC of culture confluence over time ([3]; 5 µM) | AUC of culture confluence over time ([3]; 10 µM) | AUC of culture confluence over time ([3]; 20 µM) | AUC of culture confluence over time ([3]; 40 µM) | AUC of culture confluence over time ([3]; 80 µM) | total intracellular glutathione ([4]; 5 µM) | total intracellular glutathione ([4]; 10 µM) | total intracellular glutathione ([4]; 20 µM) | total intracellular glutathione ([4]; 40 µM) | total intracellular glutathione ([4]; 80 µM) | cell viability ([5]; 5 µM) | cell viability ([5]; 10 µM) | cell viability ([5]; 20 µM) | cell viability ([5]; 40 µM) | cell viability ([5]; 80 µM) | intracellular GSH:GSSG ratio ([6]; 5 µM) | intracellular GSH:GSSG ratio ([6]; 10 µM) | intracellular GSH:GSSG ratio ([6]; 20 µM) | intracellular GSH:GSSG ratio ([6]; 40 µM) | intracellular GSH:GSSG ratio ([6]; 80 µM)
Cc1cc2c(C(C)C)c(O)c(O)c(C=O)c2c(O)c1-c1c(C)cc2c(C(C)C)c(O)c(O)c(C=O)c2c1O | 1.09 | 1.1 | 1.09 | 1.02 | 0.937 | 0.551 | 0.246 | 0.261 | 3.83 | 4.24 | 4.3 | 5.05 | 15.5 | 17.8 | 22.1 | 24.1 | 48.5 | 36.2 | 32.6 | 18.2 | 18.5 | 92.2 ± 3.2 | 70 ± 4.9 | 63.3 ± 3.2 | 62.8 ± 3.7 | 18.2 ± 4.2 | 96.4 ± 1.8 | 88.1 ± 5.2 | 68.2 ± 2.1 | 42.7 ± 11 | 5.12 ± 1.6 | 16.4 | 15.8 | 7.02 | 3.8 | 1.25
O=[N+]([O-])c1c(Cl)cc(Cl)c2nsnc12 | 0.967 | 0.626 | 0.447 | 0.222 | 0.02 | 0.0161 | – | – | 5.1 | 10.7 | 14.1 | 17.8 | 25.1 | 24.4 | – | – | 19.8 | 10.2 | 8 | – | – | 116 ± 6.5 | 81.7 ± 6 | 48.7 ± 3.5 | – | – | 88.3 ± 13 | 52.4 ± 10 | 19.5 ± 8.6 | – | – | 13.9 | 6.83 | 2.56 | – | –
C=CC(=O)Nc1cc(Nc2nccc(-c3cn(C)c4ccccc34)n2)c(OC)cc1N(C)CCN(C)C | 0.982 | 0.951 | 0.964 | 0.897 | 0.773 | 0.363 | – | – | 10.5 | 8.95 | 9.22 | 9.78 | 13.8 | 17.8 | – | – | 39 | 28.4 | 7 | – | – | 86.9 ± 3.4 | 77.4 ± 3.5 | 50.4 ± 3.9 | – | – | 75.6 ± 3.2 | 55 ± 4 | 35 ± 2.5 | – | – | 22.9 | 12.3 | 7.29 | – | –
CC(=O)OC1C(c2ccc(=O)oc2)C2(C)CCC3C(CCC4CC(O)CCC43C)C23OC13 (configuration not stated) | 0.327 | 0.27 | 0.264 | 0.242 | 0.229 | 0.224 | – | – | 17.1 | 16.2 | 18 | 19 | 18.5 | 18.8 | – | – | 17.6 | 19.4 | 17.6 | – | – | 13.9 ± 1.2 | 12.1 ± 1.1 | 11.5 ± 0.76 | – | – | 21.4 ± 1.7 | 21.5 ± 2.2 | 23.7 ± 3.1 | – | – | 4.48 | 3.04 | 2.21 | – | –
O=C(OCC)/C(C(OCC)=O)=C\CCCCCCCCCCCCCC | 0.991 | 0.978 | 0.959 | 1.02 | 0.99 | 0.967 | 0.841 | 0.829 | 5.04 | 5.19 | 5.29 | 5.06 | 5.95 | 10.9 | 7.78 | 10.2 | 53.1 | 50.2 | 48.9 | 50.4 | 50.3 | 100 ± 4.9 | 95.7 ± 3.5 | 93.1 ± 2 | 105 ± 4.8 | 98.9 ± 3 | 94.3 ± 6.5 | 96.7 ± 6.4 | 100 ± 8 | 98 ± 6.9 | 99.2 ± 6.2 | 18.9 | 17.6 | 21.8 | 22 | 20.9
c1ccc(-c2noc(NC3CCCC3)n2)cc1 | 1.03 | 1.02 | 1.06 | 1.05 | 1.07 | 1.06 | – | – | 2.72 | 2.85 | 2.97 | 3.02 | 2.62 | 3.1 | – | – | 44 | 42.5 | 44.2 | – | – | 103 ± 5.1 | 103 ± 10 | 107 ± 7.1 | – | – | 95.5 ± 6.9 | 101 ± 8.9 | 97 ± 6.5 | – | – | 28.5 | 30.3 | 26 | – | –
O=C(NNS(=O)(=O)c1ccccc1)c1cc(-c2ccnnc2)ccc1F | 0.985 | 0.95 | 0.967 | 1.02 | 0.939 | 1.04 | – | – | 4.47 | 4.16 | 3.77 | 3.67 | 4.24 | 4.38 | – | – | 49.6 | 50 | 49.6 | – | – | 98 ± 3.1 | 94.3 ± 3 | 94.6 ± 4.8 | – | – | 95.6 ± 5.4 | 87.5 ± 7.7 | 88.5 ± 3.6 | – | – | 23.9 | 21.4 | 23.2 | – | –
